Results as given in patent US5672710A, “Sulfides, sulfoxides and sulfones disubstituted with a tetrahydronaphthalenyl, chromanyl, thiochromanyl or tetrahydroquinolinyl and substituted phenyl or heteroaryl group, having retinoid-like biological activity” (priority 1995, dated 1997).

Assays:
[1] = biological target: T1, RXRγ (Mus musculus, UniProt P28705); assay: Ligand binding assay, RXRγ
T1 construct: expressed in transfected cells; host or cells: CV1
T1 sequence (P28705 1-463): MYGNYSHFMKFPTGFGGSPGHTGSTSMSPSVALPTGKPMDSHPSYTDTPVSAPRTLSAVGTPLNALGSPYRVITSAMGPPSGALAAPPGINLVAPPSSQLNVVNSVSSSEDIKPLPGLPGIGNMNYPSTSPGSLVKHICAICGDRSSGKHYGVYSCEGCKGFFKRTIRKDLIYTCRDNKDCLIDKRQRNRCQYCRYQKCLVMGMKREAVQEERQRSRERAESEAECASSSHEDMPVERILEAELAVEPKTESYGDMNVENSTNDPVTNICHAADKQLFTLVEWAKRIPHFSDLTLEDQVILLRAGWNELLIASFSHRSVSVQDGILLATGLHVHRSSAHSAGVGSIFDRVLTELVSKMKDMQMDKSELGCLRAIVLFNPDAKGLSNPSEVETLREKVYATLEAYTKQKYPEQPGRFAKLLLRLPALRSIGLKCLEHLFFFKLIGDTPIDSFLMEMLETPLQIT
Text: (§1) A holoreceptor transactivation assay and a ligand binding assay which measure the ability of the compounds of the invention to bind to the several retinoid receptor subtypes, respectively, are described in published PCT Application No. WO W093/11755 (particularly on pages 30-33 and 37-41) published on Jun. 24, 1993, the specification of which is also incorporated herein by reference. A description of the holoreceptor transactivation assay is also provided below.
(§2) CV1 cells (5,000 cells/well) were transfected with an RAR reporter plasmid MTV-TREp-LUC (50 ng) along with one of the […] expression vectors (10 ng) in an automated 96-well format by the calcium phosphate procedure of Heyman et al. Cell 68, 397-406. (8). For RXRα and RXR.GAMMA. transactivation assays, an RXR-responsive reporter plasmid CRBPII-tk-LUC (50 ng) along with the appropriate RXRexpression vectors (10 ng) was used substantially as described by Heyman et al. above, and Allegretto et al. J. Biol. Chem. 268, 26625-26633. For RXRβ transactivation assays, an RXR-responsive reporter plasmid CPRE-tk-LUC ([…]) along with RXRβ expression vector ([…]) was used as described in above. These reporters contain DRI elements from human CRBPII and certain DRI elements from promoter, respectively. (see Mangelsdorf et al. The Retinoids: Biology, Chemistry and Medicine, pp 319-349, Raven Press Ltd., New York and Heyman et al., cited above) (1, 8). A β-galactosidase (50 ng) expression vector was used as an internal control in the transfections to normalize for variations in transfection efficiency. The cells were transfected in triplicate for 6 hours, followed by incubation with retinoids for 36 hours, and the extracts were assayed for luciferase and β-galactosidase activities. The detailed experimental procedure for holoreceptor transactivations has been described in Heyman et al. above, and Allegretto et al. cited above. The results obtained in this assay in connection with examplary compounds in accordance with the present invention are expressed in EC50 numbers, as they are also in the chimeric receptor transactivation assay. The Heyman et al. Cell 68, 397-406, Allegretto et al. J. Biol. Chem. 268, 26625-26633, and Mangelsdorf et al. The Retinoids: Biology, Chemistry and Medicine, pp 319-349, Raven Press Ltd., New York, are expressly incorporated herein by reference. The results of ligand binding assay are expressed in Kd numbers. (See Cheng et al. Biochemical Pharmacology Vol. 22 pp 3099-3108, expressly incorporated herein by reference.)

[2] = biological target: T2, RARγ (Homo sapiens, UniProt P13631); assay: Ligand binding assay, RARγ
T2 construct: expressed in transfected cells; host or cells: CV1
T2 sequence (P13631 1-454): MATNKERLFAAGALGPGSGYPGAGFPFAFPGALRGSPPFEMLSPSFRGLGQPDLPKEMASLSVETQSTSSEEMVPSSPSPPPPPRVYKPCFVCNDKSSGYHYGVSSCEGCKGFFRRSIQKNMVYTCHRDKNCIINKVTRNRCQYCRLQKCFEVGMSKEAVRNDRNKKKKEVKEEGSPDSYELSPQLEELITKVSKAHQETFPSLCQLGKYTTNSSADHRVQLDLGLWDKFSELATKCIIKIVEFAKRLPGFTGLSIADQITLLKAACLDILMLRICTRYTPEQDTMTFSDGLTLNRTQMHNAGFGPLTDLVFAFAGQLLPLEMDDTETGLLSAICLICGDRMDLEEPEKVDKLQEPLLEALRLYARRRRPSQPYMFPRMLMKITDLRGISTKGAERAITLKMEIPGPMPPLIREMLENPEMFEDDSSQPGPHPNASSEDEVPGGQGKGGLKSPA
Text: as §1, §2

[3] = biological target: T3, RARβ (Homo sapiens, UniProt P10826); assay: Holoreceptor transactivation assay, RARβ; type: cell-based; details: CV-1; CV1 cells; relative to all trans retinoic acid; read-out: Transactivation Assay Efficacy (% of RA activity), RARβ
T3 construct: expressed in transfected cells; host or cells: CV1
T3 sequence (P10826 1-448 isoform P10826-2): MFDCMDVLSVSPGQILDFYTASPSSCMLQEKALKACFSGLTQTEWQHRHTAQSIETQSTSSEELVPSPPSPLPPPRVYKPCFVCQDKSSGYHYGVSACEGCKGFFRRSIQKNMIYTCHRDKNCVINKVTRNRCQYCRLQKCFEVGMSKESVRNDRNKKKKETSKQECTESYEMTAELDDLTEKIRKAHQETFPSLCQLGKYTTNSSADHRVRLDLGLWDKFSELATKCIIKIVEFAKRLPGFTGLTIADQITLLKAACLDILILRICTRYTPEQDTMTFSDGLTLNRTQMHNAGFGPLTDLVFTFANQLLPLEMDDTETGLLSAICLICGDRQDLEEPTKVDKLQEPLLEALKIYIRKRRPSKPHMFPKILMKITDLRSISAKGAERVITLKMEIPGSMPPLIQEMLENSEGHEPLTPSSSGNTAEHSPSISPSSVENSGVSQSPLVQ
Text: as §1, §2

Row | SMILES | Kd [1] [nM] | Kd [2] [nM] | Emax [3] [%]
1 | Cc1cc2c(cc1S(=O)(=O)c1ccc(C(=O)O)cc1)C(C)(C)CCC2(C)C [Compound 11, 4-(5,6,7,8-tetrahydro-3,5,5,8,8-pentamethyl-2-naphthylsulfonyl)benzoic acid] | > 1000 | > 1000 | 6
2 | Cc1cc2c(cc1Sc1ncc(C(=O)O)s1)C(C)(C)CCC2(C)C [Compound 15, 2-(5,6,7,8-Tetrahydro-3,5,5,8,8-pentamethyl-2-naphthylthio)-5-thiazolecarboxylic acid] | > 1000 | > 1000 | 0
3 | Cc1cc2c(cc1Sc1ccc(C(=O)O)cc1)C(C)(C)CCC2(C)C [Compound 7, 4-(5,6,7,8-tetrahydro-3,5,5,8,8-pentamethyl-2-Daphthylthio)benzoic acid] | 304 | > 1000 | 4
4 | Cc1cc2c(cc1[S+]([O-])c1ccc(C(=O)O)cc1)C(C)(C)CCC2(C)C (centres unmarked) [Compound 9, 4-(5,6,7,8-tetrahydro-3,5,5,8,8-pentamethyl-2-naphthylsulfoxy)benzoic acid] | > 1000 | > 1000 | 4
5 | CC1(C)CCC(C)(C)c2cc(S(=O)(=O)c3ccc(C(=O)O)cc3)ccc21 [Compound 5, 4-(5,6,7,8-tetrahydro-5,5,8,8-tetramethyl-2-naphthylsulfonyl)benzoic acid] | > 1000 | > 1000 | 4
6 | CC1(C)CCC(C)(C)c2cc(Sc3ccc(C(=O)O)cc3)ccc21 [Compound 2] | – | > 1000 | 66
7 | Cc1cc2c(cc1Sc1ccc(C(=O)O)cn1)C(C)(C)CCC2(C)C [Compound 13] | 73 | > 10000 | 4
